{"source": "ChEMBL document CHEMBL5696442", "about": "“Discovery of type II inhibitors of TGFβ-activated kinase 1 (TAK1) and mitogen-activated protein kinase kinase kinase kinase 2 (MAP4K2)” (J Med Chem, 2015)", "key": {"[1]": {"target": "T1, Serine/threonine-protein kinase Nek1 (Homo sapiens) (UniProt Q96PY6)", "T1 sequence (whole entry)": "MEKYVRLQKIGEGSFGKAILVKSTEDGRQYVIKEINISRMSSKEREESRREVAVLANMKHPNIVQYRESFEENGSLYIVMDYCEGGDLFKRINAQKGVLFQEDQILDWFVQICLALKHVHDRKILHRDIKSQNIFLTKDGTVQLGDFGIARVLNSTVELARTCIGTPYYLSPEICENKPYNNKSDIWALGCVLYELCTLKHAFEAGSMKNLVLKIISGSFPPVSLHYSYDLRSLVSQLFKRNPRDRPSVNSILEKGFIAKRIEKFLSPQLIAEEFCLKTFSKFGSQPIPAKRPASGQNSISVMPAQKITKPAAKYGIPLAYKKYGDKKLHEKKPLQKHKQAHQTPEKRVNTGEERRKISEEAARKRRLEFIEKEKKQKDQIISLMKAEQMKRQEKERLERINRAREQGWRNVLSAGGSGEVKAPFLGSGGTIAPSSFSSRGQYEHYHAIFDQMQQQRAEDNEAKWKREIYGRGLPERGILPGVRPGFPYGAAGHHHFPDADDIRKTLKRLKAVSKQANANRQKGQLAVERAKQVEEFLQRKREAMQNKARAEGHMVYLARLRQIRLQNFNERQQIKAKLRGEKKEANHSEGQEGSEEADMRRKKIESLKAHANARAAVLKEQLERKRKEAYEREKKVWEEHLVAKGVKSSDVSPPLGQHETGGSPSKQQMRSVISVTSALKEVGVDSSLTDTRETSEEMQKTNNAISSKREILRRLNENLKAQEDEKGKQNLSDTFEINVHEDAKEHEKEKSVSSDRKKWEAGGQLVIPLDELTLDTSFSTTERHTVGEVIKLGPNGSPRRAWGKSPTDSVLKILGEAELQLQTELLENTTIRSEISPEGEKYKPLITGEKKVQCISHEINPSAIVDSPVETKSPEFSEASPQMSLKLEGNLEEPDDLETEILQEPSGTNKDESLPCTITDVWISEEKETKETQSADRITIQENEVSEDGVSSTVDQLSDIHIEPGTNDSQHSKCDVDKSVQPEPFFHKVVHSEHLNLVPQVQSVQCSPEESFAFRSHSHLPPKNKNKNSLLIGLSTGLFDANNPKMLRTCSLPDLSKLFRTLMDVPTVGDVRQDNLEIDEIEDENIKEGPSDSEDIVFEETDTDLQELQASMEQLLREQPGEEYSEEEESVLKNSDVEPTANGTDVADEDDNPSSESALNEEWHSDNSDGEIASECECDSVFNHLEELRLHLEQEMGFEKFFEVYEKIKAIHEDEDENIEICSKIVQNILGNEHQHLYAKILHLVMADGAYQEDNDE", "test": "Inhibition of NEK1 Lys2 labeling site in human A-375 cells at 0.05 uM by KiNativ Profiling analysis relative to control", "assay_type": "cell-based"}, "[2]": {"target": "Calcium/calmodulin-dependent protein kinase type II subunit delta (Homo sapiens) (UniProt Q13557)", "sequence (Q13557 whole entry)": "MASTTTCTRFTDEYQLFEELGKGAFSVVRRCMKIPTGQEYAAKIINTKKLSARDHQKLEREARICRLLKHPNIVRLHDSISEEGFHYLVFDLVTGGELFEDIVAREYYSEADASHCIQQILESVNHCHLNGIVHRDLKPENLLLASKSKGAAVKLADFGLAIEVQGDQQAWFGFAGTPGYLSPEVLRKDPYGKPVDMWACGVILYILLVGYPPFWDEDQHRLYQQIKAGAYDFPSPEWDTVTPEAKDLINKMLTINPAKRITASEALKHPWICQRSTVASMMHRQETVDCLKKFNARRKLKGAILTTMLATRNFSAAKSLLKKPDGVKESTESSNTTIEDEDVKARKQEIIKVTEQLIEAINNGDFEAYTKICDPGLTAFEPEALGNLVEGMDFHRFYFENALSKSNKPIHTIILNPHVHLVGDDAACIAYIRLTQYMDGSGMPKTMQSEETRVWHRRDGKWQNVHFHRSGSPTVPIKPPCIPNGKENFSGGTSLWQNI", "test": "Inhibition of CAMK2D (unknown origin) at 10 uM by Ambit Kinomescan binding assay"}, "[3]": {"system": "Epidermal growth factor receptor (Homo sapiens), P00533 [G719S]", "sequence (P00533 whole entry G719S)": "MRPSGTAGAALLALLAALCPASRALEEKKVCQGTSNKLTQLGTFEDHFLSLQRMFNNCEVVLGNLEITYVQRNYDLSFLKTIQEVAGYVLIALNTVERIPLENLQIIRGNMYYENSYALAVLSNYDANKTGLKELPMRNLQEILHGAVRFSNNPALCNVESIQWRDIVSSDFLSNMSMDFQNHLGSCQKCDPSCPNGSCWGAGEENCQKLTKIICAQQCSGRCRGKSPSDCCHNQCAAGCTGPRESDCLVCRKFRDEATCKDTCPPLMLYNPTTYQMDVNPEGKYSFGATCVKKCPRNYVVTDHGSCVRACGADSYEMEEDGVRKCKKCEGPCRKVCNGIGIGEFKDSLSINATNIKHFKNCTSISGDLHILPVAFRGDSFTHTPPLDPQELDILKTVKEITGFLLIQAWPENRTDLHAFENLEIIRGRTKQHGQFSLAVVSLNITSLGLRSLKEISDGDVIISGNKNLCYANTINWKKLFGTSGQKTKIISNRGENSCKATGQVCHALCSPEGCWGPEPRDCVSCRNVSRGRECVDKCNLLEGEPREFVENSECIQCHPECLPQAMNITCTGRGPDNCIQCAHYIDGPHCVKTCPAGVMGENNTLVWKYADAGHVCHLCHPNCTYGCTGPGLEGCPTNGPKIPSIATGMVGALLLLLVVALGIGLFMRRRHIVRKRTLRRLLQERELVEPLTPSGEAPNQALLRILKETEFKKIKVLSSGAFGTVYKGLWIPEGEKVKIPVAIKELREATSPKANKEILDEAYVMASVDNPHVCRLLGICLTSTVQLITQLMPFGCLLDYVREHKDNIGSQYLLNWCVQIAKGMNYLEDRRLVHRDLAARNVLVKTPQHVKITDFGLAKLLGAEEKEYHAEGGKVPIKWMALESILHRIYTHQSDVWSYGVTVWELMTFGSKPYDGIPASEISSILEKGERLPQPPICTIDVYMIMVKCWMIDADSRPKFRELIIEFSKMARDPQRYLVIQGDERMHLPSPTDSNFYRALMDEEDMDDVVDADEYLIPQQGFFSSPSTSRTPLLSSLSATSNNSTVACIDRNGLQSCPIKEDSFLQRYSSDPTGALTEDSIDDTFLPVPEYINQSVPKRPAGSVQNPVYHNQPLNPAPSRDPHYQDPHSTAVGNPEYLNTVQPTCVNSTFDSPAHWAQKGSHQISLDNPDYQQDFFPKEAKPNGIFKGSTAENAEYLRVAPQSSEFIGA", "test": "Inhibition of EGFR G719S mutant (unknown origin) at 10 uM by Ambit Kinomescan binding assay relative to control"}, "[4]": {"target": "Interferon-induced, double-stranded RNA-activated protein kinase (Homo sapiens) (UniProt P19525)", "sequence (P19525 whole entry)": "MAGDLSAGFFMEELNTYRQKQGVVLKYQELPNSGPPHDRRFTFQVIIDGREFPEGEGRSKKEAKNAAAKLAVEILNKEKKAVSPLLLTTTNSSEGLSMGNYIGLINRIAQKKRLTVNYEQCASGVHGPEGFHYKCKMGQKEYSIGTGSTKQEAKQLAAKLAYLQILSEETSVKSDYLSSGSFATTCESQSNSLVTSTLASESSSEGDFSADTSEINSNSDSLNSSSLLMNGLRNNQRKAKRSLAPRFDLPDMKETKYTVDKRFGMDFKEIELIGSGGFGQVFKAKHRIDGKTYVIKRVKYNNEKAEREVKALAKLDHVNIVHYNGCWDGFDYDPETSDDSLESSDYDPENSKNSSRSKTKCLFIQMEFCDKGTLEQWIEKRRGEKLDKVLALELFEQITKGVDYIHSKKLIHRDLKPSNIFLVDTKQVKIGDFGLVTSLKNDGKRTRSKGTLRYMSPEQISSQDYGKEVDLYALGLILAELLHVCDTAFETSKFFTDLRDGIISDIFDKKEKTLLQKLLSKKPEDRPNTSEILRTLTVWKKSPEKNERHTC", "test": "Inhibition of PKR K2 labeling site in human Huh-7 cells at 10 uM by KiNativ Profiling analysis relative to control", "assay_type": "cell-based"}, "[5]": {"target": "Serine/threonine-protein kinase PLK1 (Homo sapiens) (UniProt P53350)", "sequence (P53350 whole entry)": "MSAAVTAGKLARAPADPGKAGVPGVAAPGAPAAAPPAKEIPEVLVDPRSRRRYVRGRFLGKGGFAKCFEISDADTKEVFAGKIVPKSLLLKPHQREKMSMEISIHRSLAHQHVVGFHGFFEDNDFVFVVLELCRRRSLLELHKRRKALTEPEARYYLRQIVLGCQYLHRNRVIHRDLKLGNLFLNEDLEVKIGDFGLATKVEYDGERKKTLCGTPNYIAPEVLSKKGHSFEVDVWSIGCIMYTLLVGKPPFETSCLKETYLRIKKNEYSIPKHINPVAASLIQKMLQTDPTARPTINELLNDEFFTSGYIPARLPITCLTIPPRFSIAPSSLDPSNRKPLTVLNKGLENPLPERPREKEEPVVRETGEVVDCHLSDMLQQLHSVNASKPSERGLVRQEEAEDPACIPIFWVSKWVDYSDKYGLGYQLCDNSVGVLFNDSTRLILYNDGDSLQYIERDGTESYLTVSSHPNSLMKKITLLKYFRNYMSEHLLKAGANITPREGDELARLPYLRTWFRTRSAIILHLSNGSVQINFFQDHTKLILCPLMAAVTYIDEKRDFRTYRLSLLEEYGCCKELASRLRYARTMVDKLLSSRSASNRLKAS", "test": "Inhibition of PLK1 Lys2 labeling site in human Huh-7 cells at 1 uM by KiNativ Profiling analysis relative to control", "assay_type": "cell-based"}, "[6]": {"target": "Serine/threonine-protein kinase VRK2 (Homo sapiens) (UniProt Q86Y07)", "sequence (Q86Y07 whole entry)": "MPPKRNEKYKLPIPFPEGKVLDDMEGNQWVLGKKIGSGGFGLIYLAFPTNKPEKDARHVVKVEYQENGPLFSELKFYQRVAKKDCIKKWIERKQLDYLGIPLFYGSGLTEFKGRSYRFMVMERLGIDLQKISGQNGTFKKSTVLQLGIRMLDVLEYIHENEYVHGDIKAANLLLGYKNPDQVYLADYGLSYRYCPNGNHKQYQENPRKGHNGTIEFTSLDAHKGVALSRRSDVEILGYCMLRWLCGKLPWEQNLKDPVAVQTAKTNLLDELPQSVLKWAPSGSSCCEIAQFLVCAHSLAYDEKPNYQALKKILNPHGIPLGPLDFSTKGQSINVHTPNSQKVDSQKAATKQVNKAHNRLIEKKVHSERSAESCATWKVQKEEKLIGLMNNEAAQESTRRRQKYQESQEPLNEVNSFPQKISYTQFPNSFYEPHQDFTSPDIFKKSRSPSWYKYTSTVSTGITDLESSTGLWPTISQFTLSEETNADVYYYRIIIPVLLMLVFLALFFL", "test": "Inhibition of VRK2 Lys2 labeling site in human A-375 cells at 0.5 uM by KiNativ Profiling analysis relative to control", "assay_type": "cell-based"}, "[7]": {"target": "T2, Atrial natriuretic peptide receptor 2 (Homo sapiens) (UniProt P20594)", "T2 sequence (whole entry)": "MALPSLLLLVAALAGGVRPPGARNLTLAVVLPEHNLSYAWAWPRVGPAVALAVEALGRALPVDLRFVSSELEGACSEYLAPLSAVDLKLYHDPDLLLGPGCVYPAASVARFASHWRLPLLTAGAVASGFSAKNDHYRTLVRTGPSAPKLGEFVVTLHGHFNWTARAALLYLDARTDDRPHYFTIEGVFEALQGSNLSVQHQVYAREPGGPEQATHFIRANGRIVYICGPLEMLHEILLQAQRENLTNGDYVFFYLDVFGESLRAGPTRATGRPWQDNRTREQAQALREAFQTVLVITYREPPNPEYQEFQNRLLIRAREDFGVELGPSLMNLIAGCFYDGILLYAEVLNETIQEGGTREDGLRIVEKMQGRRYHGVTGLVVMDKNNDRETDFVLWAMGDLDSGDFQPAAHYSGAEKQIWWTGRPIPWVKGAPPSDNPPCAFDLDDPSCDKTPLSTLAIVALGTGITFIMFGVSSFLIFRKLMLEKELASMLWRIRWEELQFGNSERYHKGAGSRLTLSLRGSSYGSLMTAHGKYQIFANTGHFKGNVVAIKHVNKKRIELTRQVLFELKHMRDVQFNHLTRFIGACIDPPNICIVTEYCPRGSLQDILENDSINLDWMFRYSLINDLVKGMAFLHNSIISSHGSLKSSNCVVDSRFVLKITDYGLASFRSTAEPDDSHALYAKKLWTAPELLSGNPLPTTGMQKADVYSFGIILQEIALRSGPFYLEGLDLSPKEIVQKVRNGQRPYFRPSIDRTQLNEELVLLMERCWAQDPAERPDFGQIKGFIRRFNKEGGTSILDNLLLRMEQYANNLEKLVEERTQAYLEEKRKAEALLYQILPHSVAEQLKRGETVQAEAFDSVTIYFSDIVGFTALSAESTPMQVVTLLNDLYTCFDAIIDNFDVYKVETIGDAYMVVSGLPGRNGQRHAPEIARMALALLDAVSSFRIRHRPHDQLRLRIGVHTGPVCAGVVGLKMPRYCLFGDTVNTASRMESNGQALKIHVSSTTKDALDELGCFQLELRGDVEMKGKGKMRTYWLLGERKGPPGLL", "test": "Inhibition of ANPb Lys2 labeling site in human A-375 cells at 0.05 uM by KiNativ Profiling analysis relative to control", "assay_type": "cell-based"}}, "note": "Calls of active or inactive are those of the source. The calls are words filed in the database; no cut-off is given here.", "data": [{"smiles": "CCN1CCN(Cc2ccc(NC(=O)c3ccc(C)c(Oc4ccnc5[nH]ccc45)c3)cc2C(F)(F)F)CC1", "values": [{"measurement": "inhibition", "setting": "[1]", "result": -7.1, "unit": "%"}, {"measurement": "inhibition", "setting": "[2]", "result": "inactive"}, {"measurement": "inhibition", "setting": "[3]", "result": 14, "unit": "%"}, {"measurement": "inhibition", "setting": "[4]", "result": 7.9, "unit": "%"}]}, {"smiles": "CNc1cc(Oc2cc(C(=O)Nc3cc(N4CCN(C)CC4)cc(C(F)(F)F)c3)ccc2C)ncn1", "values": [{"measurement": "inhibition", "setting": "[5]", "result": 1.3, "unit": "%"}]}, {"smiles": "CCN1CCN(Cc2ccc(NC(=O)c3ccc(C)c(/C=C/c4cnc5[nH]ccc5c4OC)c3)cc2C(F)(F)F)CC1", "values": [{"measurement": "inhibition", "setting": "[6]", "result": 28.5, "unit": "%"}, {"measurement": "inhibition", "setting": "[7]", "result": -8.7, "unit": "%"}]}]}
